# Target: T1, Recombinant Human ENPP-2/Autotaxin (Homo sapiens, UniProt Q13822)
# T1 construct: purchased R&D systems 5255-EN
# Test: LysoPLD activity measurement (autotaxin enzyme inhibition, choline release, TOOS reagent)
# Type: biochemical
# Conditions: LysoPLD inhibitory activity; substrate 14:0 LysoPC; absorbance at 555 nm
# Method: Such a measurement method is a method of measuring the amount of choline, which is a reaction product in an autotaxin enzyme reaction, using a TOOS reagent. Depending on the activity of the autotaxin inhibitor, the amount of choline produced as a reaction product varies, which affects the final absorbance.
# After 30 min, 14:0 LysoPC of the substrate diluted to a concentration of 300 μM with the enzyme reaction buffer solution was dispensed into each well by 50 μL and allowed to stand at 37° C. for 90 minutes. At this time, negative control wells were dispensed with 1% DMSO, substrate, and autotaxin instead of the compound, and positive control wells were dispensed with 1% DMSO and substrate.
row,SMILES,IC50
1,"O=C(O)c1cccc(Cn2c(=O)n(-c3ccc(OCC4CCC4)cc3)c3cc(Cl)ccc32)c1 [Example 27, 3-((5-chloro-3-(4-(cyclobutylmethoxy)phenyl)-2-oxo-2,3-dihydro-1H-benzo[d]imidazol-1-yl)methyl)benzoic acid]",100 to 1000 nM
2,"O=C(O)c1cccc(Cn2c(=O)n(-c3ccc(N4CCCCC4=O)cc3)c3cc(Cl)ccc32)c1 [Example 28, 3-((5-chloro-2-oxo-3-(4-(2-oxopiperidin-1-yl)phenyl)-2,3-dihydro-1H-benzo[d]imidazol-1-yl)methyl)benzoic acid]",10 to 100 nM
3,"O=C(O)c1cccc(Cn2c(=O)n(-c3ccc(N4CCCC4)cc3)c3cc(Cl)ccc32)c1 [Example 29, 3-((5-chloro-2-oxo-3-(4-(pyrrolidin-1-yl)phenyl)-2,3-dihydro-1H-benzo[d]imidazol-1-yl)methyl)benzoic acid]",10 to 100 nM
4,"O=C(O)c1cccc(Cn2c(=O)n(-c3ccc(OCC4CCC4)c(F)c3)c3cc(Cl)ccc32)c1 [Example 30, 3-((5-chloro-3-(4-(cyclobutylmethoxy)-3-fluorophenyl)-2-oxo-2,3-dihydro-1H-benzo[d]imidazol-1-yl)methyl)benzoic acid]",100 to 1000 nM
5,"CCCc1ccc(-n2c(=O)n(C3(c4cccc(C(=O)O)c4)CC3)c3ccc(Cl)cc32)cc1 [Example 31, 3-(1-(5-chloro-2-oxo-3-(4-propylphenyl)-2,3-dihydro-1H-benzo[d]imidazol-1-yl)cyclopropyl)benzoic acid]",10 to 100 nM
6,"O=C(O)c1ccc(F)c(Cn2c(=O)n(-c3ccccc3)c3cc(Cl)ccc32)c1 [Example 32, 3-((5-chloro-2-oxo-3-phenyl-2,3-dihydro-1H-benzo[d]imidazol-1-yl)methyl)-4-fluorobenzoic acid]",100 to 1000 nM
7,"O=C(O)c1cccc(Cn2c(=O)n(-c3ccccc3)c3cc(Cl)ccc32)c1F [Example 33, 3-((5-chloro-2-oxo-3-phenyl-2,3-dihydro-1H-benzo[d]imidazol-1-yl)methyl)-2-fluorobenzoic acid]",100 to 1000 nM
8,"O=C(O)c1cc(F)cc(Cn2c(=O)n(-c3ccccc3)c3cc(Cl)ccc32)c1 [Example 34, 3-((5-chloro-2-oxo-3-phenyl-2,3-dihydro-1H-benzo[d]imidazol-1-yl)methyl)-5-fluorobenzoic acid]",100 to 1000 nM
9,"O=C(O)c1cc(Cn2c(=O)n(-c3ccccc3)c3cc(Cl)ccc32)ccc1F [Example 35, 5-((5-chloro-2-oxo-3-phenyl-2,3-dihydro-1H-benzo[d]imidazol-1-yl)methyl)-2-fluorobenzoic acid]",100 to 1000 nM
10,"CN(C)C(=O)c1ccc(-n2c(=O)n(Cc3cccc(C(=O)O)c3)c3ccc(Cl)cc32)cc1F [Example 36, 3-((5-chloro-3-(4-(dimethylcarbamoyl)-3-fluorophenyl)-2-oxo-2,3-dihydro-1H-benzo[d]imidazol-1-yl)methyl)benzoic acid]",10 to 100 nM
11,"CN(C)c1ccc(-n2c(=O)n(Cc3cccc(C(=O)O)c3)c3cc(Cl)cc(F)c32)cc1 [Example 37, 3-((6-chloro-3-(4-(dimethylamino)phenyl)-4-fluoro-2-oxo-2,3-dihydro-1H-benzo[d]imidazol-1-yl)methyl)benzoic acid]",100 to 1000 nM
12,"CN(C)C(=O)c1ccc(-n2c(=O)n(Cc3cccc(C(=O)O)c3F)c3ccc(Cl)cc32)cc1 [Example 38, 3-((5-chloro-3-(4-(dimethylcarbamoyl)phenyl)-2-oxo-2,3-dihydro-1H-benzo[d]imidazol-1-yl)methyl)-2-fluorobenzoic acid]",< 10 nM
13,"CN(C)c1ccc(-n2c(=O)n(Cc3cccc(C(=O)O)c3F)c3ccc(Cl)cc32)cc1 [Example 39, 3-((5-chloro-3-(4-(dimethylamino)phenyl)-2-oxo-2,3-dihydro-1H-benzo[d]imidazol-1-yl)methyl)-2-fluorobenzoic acid]",10 to 100 nM
14,"CC(C)Oc1ccc(-n2c(=O)n(Cc3cccc(C(=O)O)c3F)c3ccc(Cl)cc32)cc1 [Example 40, 3-((5-chloro-3-(4-isopropoxyphenyl)-2-oxo-2,3-dihydro-1H-benzo[d]imidazol-1-yl)methyl)-2-fluorobenzoic acid]",10 to 100 nM
15,"CS(=O)(=O)Nc1ccc(-n2c(=O)n(Cc3cccc(C(=O)O)c3F)c3ccc(Cl)cc32)cc1 [Example 41, 3-((5-chloro-3-(4-(methylsulfonamido)phenyl)-2-oxo-2,3-dihydro-1H-benzo[d]imidazol-1-yl)methyl)-2-fluorobenzoic acid]",10 to 100 nM
16,"O=C(O)c1cccc(Cn2c(=O)n(-c3ccc(OCC4CC4)cc3)c3cc(Cl)ccc32)c1 [Example 42, 3-((5-chloro-3-(4-(cyclopropylmethoxy)phenyl)-2-oxo-2,3-dihydro-1H-benzo[d]imidazol-1-yl)methyl)benzoic acid]",100 to 1000 nM

row,SMILES,IC50
1,"O=C(O)c1cccc(Cn2c(=O)n(-c3ccc(C(=O)N4CCCCC4)cc3)c3cc(Cl)ccc32)c1 [Example 43, 3-((5-chloro-2-oxo-3-(4-(piperidine-1-carbonyl)phenyl)-2,3-dihydro-1H-benzo[d]imidazol-1-yl)methyl)benzoic acid]",< 10 nM
2,"O=C(O)c1cccc(Cn2c(=O)n(-c3ccc(C(=O)N4CCOCC4)cc3)c3cc(Cl)ccc32)c1 [Example 44, 3-((5-chloro-3-(4-(morpholine-4-carbonyl)phenyl)-2-oxo-2,3-dihydro-1H-benzo[d]imidazol-1-yl)methyl)benzoic acid]",10 to 100 nM
3,"O=C(O)c1cccc(Cn2c(=O)n(-c3ccc(C(=O)N4CCCC4)cc3)c3cc(Cl)ccc32)c1 [Example 45, 3-((5-chloro-2-oxo-3-(4-(pyrrolidine-1-carbonyl)phenyl)-2,3-dihydro-1H-benzo[d]imidazol-1-yl)methyl)benzoic acid]",< 10 nM
4,"O=C(O)c1cccc(Cn2c(=O)n(-c3ccc(C(=O)O)cc3F)c3cc(Cl)ccc32)c1 [Example 46, 4-(3-(3-carboxybenzyl)-6-chloro-2-oxo-2,3-dihydro-1H-benzo[d]imidazol-1-yl)-3-fluorobenzoic acid]",100 to 1000 nM
5,"O=C(O)c1cccc(Cn2c(=O)n(-c3ccc(N4CCOCC4)cc3)c3cc(Cl)ccc32)c1 [Example 47, 3-((5-chloro-3-(4-morpholinophenyl)-2-oxo-2,3-dihydro-1H-benzo[d]imidazol-1-yl)methyl)benzoic acid]",10 to 100 nM
6,"O=C(O)c1cc(Cn2c(=O)n(-c3ccc(N4CCOCC4)cc3)c3c(F)c(Cl)ccc32)ccc1F [Example 48, 5-((5-chloro-4-fluoro-3-(4-morpholinophenyl)-2-oxo-2,3-dihydro-1H-benzo[d]imidazol-1-yl)methyl)-2-fluorobenzoic acid]",10 to 100 nM
7,"O=C(O)c1cc(F)cc(Cn2c(=O)n(-c3ccc(N4CCOCC4)cc3)c3c(F)c(Cl)ccc32)c1 [Example 49, 3-((5-chloro-4-fluoro-3-(4-morpholinophenyl)-2-oxo-2,3-dihydro-1H-benzo[d]imidazol-1-yl)methyl)-5-fluorobenzoic acid]",10 to 100 nM
8,"O=C(O)c1ccc(F)c(Cn2c(=O)n(-c3ccc(N4CCOCC4)cc3)c3c(F)c(Cl)ccc32)c1 [Example 50, 3-((5-chloro-4-fluoro-3-(4-morpholinophenyl)-2-oxo-2,3-dihydro-1H-benzo[d]imidazol-1-yl)methyl)-4-fluorobenzoic acid]",10 to 100 nM
9,"O=C(O)c1cccc(Cn2c(=O)n(-c3ccc(N4CCOCC4)cc3)c3c(F)c(Cl)ccc32)c1F [Example 51, 3-((5-chloro-4-fluoro-3-(4-morpholinophenyl)-2-oxo-2,3-dihydro-1H-benzo[d]imidazol-1-yl)methyl)-2-fluorobenzoic acid]",< 10 nM
10,"O=C(O)c1cccc(Cn2c(=O)n(-c3ccc(N4CCOCC4)cc3)c3c(F)c(Cl)ccc32)n1 [Example 52, 6-((5-chloro-4-fluoro-3-(4-morpholinophenyl)-2-oxo-2,3-dihydro-1H-benzo[d]imidazol-1-yl)methyl)picolinic acid]",10 to 100 nM
11,"O=C(O)c1cccc(Cn2c(=O)n(-c3ccc(N4CC(O)C4)cc3)c3c(F)c(Cl)ccc32)c1 [Example 53, 3-((5-chloro-4-fluoro-3-(4-(3-hydroxyazetidin-1-yl)phenyl)-2-oxo-2,3-dihydro-1H-benzo[d]imidazol-1-yl)methyl)benzoic acid]",10 to 100 nM
12,"CN(C)C(=O)c1ccc(-n2c(=O)n(Cc3cccc(C(=O)O)c3)c3c(F)cc(Cl)cc32)cc1 [Example 54, 3-((5-chloro-3-(4-(dimethylcarbamoyl)phenyl)-7-fluoro-2-oxo-2,3-dihydro-1H-benzo[d]imidazol-1-yl)methyl)benzoic acid]",< 10 nM
13,"CSc1ccc(-n2c(=O)n(Cc3cccc(C(=O)O)c3F)c3ccc(Cl)cc32)cc1 [Example 55, 3-((5-chloro-3-(4-(methylthio)phenyl)-2-oxo-2,3-dihydro-1H-benzo[d]imidazol-1-yl)methyl)-2-fluorobenzoic acid]",10 to 100 nM
14,"O=C(O)c1cccc(Cn2c(=O)n(-c3ccc(C(=O)N4CCCC4)cc3)c3cc(Cl)ccc32)c1F [Example 56, 3-((5-chloro-2-oxo-3-(4-(pyrrolidine-1-carbonyl)phenyl)-2,3-dihydro-1H-benzo[d]imidazol-1-yl)methyl)-2-fluorobenzoic acid]",< 10 nM
15,"O=C(O)c1cccc(Cn2c(=O)n(-c3ccc(C(=O)N4CCCCC4)cc3)c3cc(Cl)ccc32)c1F [Example 57, 3-((5-chloro-2-oxo-3-(4-(piperidine-1-carbonyl)phenyl)-2,3-dihydro-1H-benzo[d]imidazol-1-yl)methyl)-2-fluorobenzoic acid]",< 10 nM
16,"COC1CCN(C(=O)c2ccc(-n3c(=O)n(Cc4cccc(C(=O)O)c4)c4ccc(Cl)cc43)cc2)C1 (centres unmarked) [Example 59, 3-((5-chloro-3-(4-(3-methoxypyrrolidine-1-carbonyl)phenyl)-2-oxo-2,3-dihydro-1H-benzo[d]imidazol-1-yl)methyl)benzoic acid]",10 to 100 nM

# From patent US20260265265A1, “NOVEL BENZIMIDAZOLONE DERIVATIVE COMPOUND AS AUTOTAXIN INHIBITOR” (LG CHEM, LTD., priority 2023, published 2026)
